Among the data in patent US20130005721A1, “INDOLIZINE INHIBITORS OF 5-LIPOXYGENASE” (PANMIRA PHARMACEUTICALS, LLC, priority 2009, published 2013) are IC50 values, retold here.

A word on the IC50: it is the point on the concentration scale where inhibition reaches its midpoint.

The test has as its system human leukocytes (LTB4 production, calcium ionophore stimulated). Nature of the test: Human Leukocyte LTB4 Inhibition Assay. Format: cell-based. The note with it: Leukocyte, LTB4 by ELISA, read-out: LTB4 HLA IC50. Here is the method:
Human Leukocyte LTB4 Inhibition Assay
A non-limiting example of a human leukocyte inhibition assay is as follows; Blood was drawn from consenting human volunteers into heparanized tubes and 3% dextran 0.9% saline ⅓ rd volume added. After sedimentation of red blood cells a hypotonic lysis of remaining red blood cells was performed and leukocytes sedimented at 1200 rpm. The pellet was resuspended at 1.25×10^5 cells/ml and aliquoted into wells containing 1 μL 100% DMSO (vehicle) or 2.5 μL drug in 100% DMSO. Samples were incubated for 5 minutes at 37° C. and 2 μL calcium ionophore […] (from a 50 mM DMSO stock diluted just prior to the assay in Hanks balanced salt solution (Invitrogen)) to 1.25 mM) was added, solutions mixed and incubated for 30 minutes at 37° C. Samples were centrifuged at 1,200 rpm (−200×g) for 10 minutes at 4° C., plasma removed and a 1:4 dilution assayed for LTB4 concentration using ELISA (Assay Designs). Drug concentrations to achieve 50% inhibition (IC50's) of vehicle LTB4 were determined by nonlinear regression (Graphpad Prism) of % inhibition versus log drug concentration.
Background: In an ELISA, binding on a coated surface is turned into a signal by an enzyme label.

On to `CCC(O)(c1cn(Cc2ccn3c(-c4ccc(Cl)cc4)c(C(N)=O)cc3c2)nn1)C(F)(F)F` (centres unmarked) [Compound 1-28, 3-(4-Chloro-phenyl)-7-[4-(1-hydroxy-1-trifluoromethyl-propyl)-[1,2,3]triazol-1-ylmethyl]-indolizine-2-carboxylic acid amide], for which the IC50 is less than 300 nM.

`CCC(O)(c1nnc(NCc2ccn3c(-c4ccc(F)cc4)c(C(N)=O)c(Br)c3c2)o1)C(F)(F)F` (centres unmarked) [Compound 1-17, 1-Bromo-3-(4-fluoro-phenyl)-7-{[5-(1-hydroxy-1-trifluoromethyl-propyl)-[1,3,4]oxadiazol-2-ylamino]-methyl}-indolizine-2-carboxylic acid amide]: the IC50 was less than 300 nM. In the case of `CCC(O)(c1cn(Cc2ccn3c(-c4cnc5ccccc5c4)c(C#N)cc3c2)nn1)C(F)(F)F` (centres unmarked) [Compound 1-53, 7-[4-(1-Hydroxy-1-trifluoromethyl-propyl)-[1,2,3]triazol-1-ylmethyl]-3-quinolin-3-yl-indolizine-2-carbonitrile], the IC50 was less than 300 nM.

`CCC(O)(c1cn(Cc2ccn3c(-c4cccnc4)c(C#N)cc3c2)nn1)C(F)(F)F` (centres unmarked) [Compound 1-26, 7-[4-(1-Hydroxy-1-trifluoromethyl-propyl)-[1,2,3]triazol-1-ylmethyl]-3-pyridin-3-yl-indolizine-2-carbonitrile]: the IC50 is less than 300 nM.

`CCOc1ccc(-c2c(C#N)cc3cc(Cn4cc(C(O)(CC)C(F)(F)F)nn4)ccn23)cn1` (centres unmarked) [Compound 1-59, 3-(6-Ethoxy-pyridin-3-yl)-7-[4-(1-hydroxy-1-trifluoromethyl-propyl)-[1,2,3]triazol-1-ylmethyl]-indolizine-2-carbonitrile]: the IC50 is less than 300 nM. In the case of `CCC(O)(c1cn(Cc2ccn3c(-c4ccc(OC)nc4)c(C(N)=O)cc3c2)nn1)C(F)(F)F` (centres unmarked) [Compound 1-35, 7-[4-(1-Hydroxy-1-trifluoromethyl-propyl)-[1,2,3]triazol-1-ylmethyl]-3-(6-methoxy-pyridin-3-yl)-indolizine-2-carboxylic acid amide], the IC50 fell in the range of 300 to 1000 nM. With `CCC(O)(c1cn(Cc2ccn3c(-c4ccc(F)cc4)c(C(C)(C)O)cc3c2)nn1)C(F)(F)F` (centres unmarked) [Compound 1-7, 1,1,1-Trifluoro-2-{1-[3-(4fluoro-phenyl)-2-(1-hydroxy-1-methyl-ethyl)-indolizin-7-ylmethyl]-1H-[1,2,3]triazol-4-yl}-butan-2-ol] the figure was less than 300 nM. As for `CCC(O)(c1cn(Cc2ccn3c(-c4ccc(F)cc4)c(/C=C/C(=O)OC)cc3c2)nn1)C(F)(F)F` (centres unmarked) [Compound 1-39, (E)-3-{3-(4-Fluoro-phenyl)-7-[4-(1-hydroxy-1-trifluoromethyl-propyl)-[1,2,3]triazol-1-ylmethyl]-indolizin-2-yl}-acrylic acid methyl ester], the figure is less than 300 nM; as for `CCC(O)(c1cn(Cc2ccn3c(-c4ccc(C)nc4)c(C#N)cc3c2)nn1)C(F)(F)F` (single isomer, unassigned) [Compound 1-76, 7-[4-(1-Hydroxy-1-trifluoromethyl-propyl)-[1,2,3]triazol-1-ylmethyl]-3-(6-methyl-pyridin-3-yl)-indolizine-2-carbonitrile], less than 300 nM. For the compound `CCOC(=O)c1cc2cc(Cn3cc(C(O)(CC)C(F)(F)F)nn3)ccn2c1-c1cccc(S(C)(=O)=O)c1` (centres unmarked) [Compound 1-47, 7-[4-(1-Hydroxy-1-trifluoromethyl-propyl)-[1,2,3]triazol-1-ylmethyl]-3-(3-methanesulfonyl-phenyl)-indolizine-2-carboxylic acid ethyl ester], the IC50 is less than 300 nM.

On to `CCC(O)(c1cn(Cc2ccn3c(-c4cccc(F)c4)c(C(N)=O)cc3c2)nn1)C(F)(F)F` (centres unmarked) [Compound 1-48, 3-(3-Fluoro-phenyl)-7-[4-(1-hydroxy-1-trifluoromethyl-propyl)-[1,2,3]triazol-1-ylmethyl]-indolizine-2-carboxylic acid amide], for which the IC50 is less than 300 nM. In the case of `CCC(O)(c1cn(Cc2ccn3c(-c4ccc(F)cc4)c(C(N)=O)cc3c2)nn1)C(F)(F)F` (centres unmarked) [Compound 1-6, 3-(4-Fluoro-phenyl)-7-[4-(1-hydroxy-1-trifluoromethyl-propyl)-[1,2,3]triazol-1-ylmethyl]-indolizine-2-carboxylic acid amide], the IC50 was less than 300 nM. Turning to `CCC(O)(c1cn(Cc2ccn3c(-c4ccc(C)nc4)c(C(N)=O)cc3c2)nn1)C(F)(F)F` (centres unmarked) [Compound 1-71, 7-[4-(1-Hydroxy-1-trifluoromethyl-propyl)-[1,2,3]triazol-1-ylmethyl]-3-(6-methyl-pyridin-3-yl)-indolizine-2-carboxylic acid amide], the IC50 is more than 1000 nM. In the case of `CCOC(=O)c1cc2cc(Cn3cc(C(O)(CC)C(F)(F)F)nn3)ccn2c1-c1cnn(C)c1` (centres unmarked) [Compound 1-74, 7-[4-(1-Hydroxy-1-trifluoromethyl-propyl)-[1,2,3]triazol-1-ylmethyl]-3-(1-methyl-1H-pyrazol-4-yl)-indolizine-2-carboxylic acid ethyl ester], the IC50 was less than 300 nM. With `CCOC(=O)c1cc2cc(Cn3cc(C(O)(CC)C(F)(F)F)nn3)ccn2c1-c1ccc(F)nc1` (centres unmarked) [Compound 1-29, 3-(6-Fluoro-pyridin-3-yl)-7-[4-(1-hydroxy-1-trifluoromethyl-propyl) [1,2,3]triazol-1-ylmethyl]-indolizine-2-carb oxylic acid ethyl ester] the figure was less than 300 nM; with `CCOC(=O)c1cc2cc(Cn3ncc(C(O)(CC)C(F)(F)F)n3)ccn2c1-c1ccc(F)cc1` (centres unmarked) [Compound 1-3, 3-(4-Fluoro-phenyl)-7-[4-(1-hydroxy-1-trifluoromethyl-propyl)-[1,2,3]triazol-2-ylmethyl]-indolizine-2-carboxylic acid ethyl ester], less than 300 nM; with `CCNC(=O)c1cc2cc(Cn3cc(C(O)(CC)C(F)(F)F)nn3)ccn2c1-c1ccc(F)cc1` (centres unmarked) [Compound 1-55, 3-(4-Fluoro-phenyl)-7-[4-(1-hydroxy-1-trifluoromethyl-propyl)-[1,2,3]triazol-1-ylmethyl]-indolizine-2-carboxylic acid ethylamide], 300 to 1000 nM.

With `CCOC(=O)c1c(Br)c2cc(CNc3nnc(C(O)(CC)C(F)(F)F)o3)ccn2c1-c1ccc(F)cc1` (centres unmarked) [Compound 1-15, 1-Bromo-3-(4-fluoro-phenyl)-7-{[5-(1-hydroxy-1-trifluoromethyl-propyl)-[1,3,4]oxadiazol-2-ylamino]-methyl}-indolizine-2-carboxylic acid ethyl ester], the IC50 was less than 300 nM. As to `CCOC(=O)c1cc2cc(Cn3cc(C(O)(CC)C(F)(F)F)nn3)ccn2c1-c1cccc(F)c1` (centres unmarked) [Compound 1-46, 3-(3-Fluoro-phenyl)-7-[4-(1-hydroxy-1-trifluoromethyl-propyl)-[1,2,3]triazol-1-ylmethyl]-indolizine-2-carboxylic acid ethyl ester], the half-inhibitory concentration (IC50) was less than 300 nM.

With `CCOC(=O)c1cc2cc(Cn3cc(C(CC)(OC(=O)c4ccc([N+](=O)[O-])cc4)C(F)(F)F)nn3)ccn2c1` (single isomer, unassigned) [Compound 1-86, 7-{4-[1-(4-Nitro-benzoyloxy)-1-trifluoromethyl-propyl]-[1,2,3]triazol-1-ylmethyl}-indolizine-2-carboxylic acid ethyl ester], the IC50 was less than 300 nM. Regarding `CCOC(=O)c1cc2cc(Cn3cc(C(O)(CC)C(F)(F)F)nn3)ccn2c1-c1cncnc1` (centres unmarked) [Compound 1-73, 7-[4-(1-Hydroxy-1-trifluoromethyl-propyl)-[1,2,3]triazol-1-ylmethyl]-3-pyrimidin-5-yl-indolizine-2-carboxylic acid ethyl ester], the IC50 is less than 300 nM. As to `CCNCc1cc2cc(Cn3cc(C(O)(CC)C(F)(F)F)nn3)ccn2c1-c1ccc(F)cc1` (centres unmarked) [Compound 1-60, 2-{1-[2-Ethylaminomethyl-3-(4-fluoro-phenyl)-indolizin-7-ylmethyl]-1H-[1,2,3]triazol-4-yl}-1,1,1-trifluoro-butan-2-ol], the IC50 is more than 1000 nM. Consider `CCC(O)(c1cn(Cc2ccn3c(-c4ccc(F)cc4)c(C(=O)N(C)OC)cc3c2)nn1)C(F)(F)F` (centres unmarked) [Compound 1-51, 3-(4-Fluoro-phenyl)-7-[4-(1-hydroxy-1-trifluoromethyl-propyl)-[1,2,3]triazol-1-ylmethyl]-indolizine-2-carboxylic acid methoxy-methyl-amide], for which the IC50 is less than 300 nM. For the compound `CCC(O)(c1nnc(NCc2ccn3c(-c4ccc(F)cc4)c(C#N)c(Br)c3c2)o1)C(F)(F)F` (centres unmarked) [Compound 1-18, 1-Bromo-3-(4-fluoro-phenyl)-7-{[5-(1-hydroxy-1-trifluoromethyl-propyl)-[1,3,4]oxadiazol-2-ylamino]-methyl}-indolizine-2-carbonitrile], the IC50 is less than 300 nM. `CCOC(=O)c1cc2cc(Cn3cc(C(O)(CC)C(F)(F)F)nn3)ccn2c1C(C)C` (single isomer, unassigned) [Compound 1-77, 7-[4-(1-Hydroxy-1-trifluoromethyl-propyl)-[1,2,3]triazol-1-ylmethyl]-3-isopropyl-indolizine-2-carboxylic acid ethyl ester]: the IC50 was less than 300 nM.

Regarding `CCC(O)(c1cn(Cc2ccn3c(-c4ccc(F)cc4)c(C(N)=O)nc3c2)nn1)C(F)(F)F` (centres unmarked) [Compound 1-14, 3-(4-Fluoro-phenyl)-7-[4-(1-hydroxy-1-trifluoromethyl-propyl)-[1,2,3]triazol-1-ylmethyl]-imidazo[1,2-a]pyridine-2-carboxylic acid amide], the concentration for half-maximal inhibition (IC50) lay in the range of 300 to 1000 nM.
